Here are results for 42 compounds from US5428059A, “Benzopyran derivatives and an anti-allergic agent possessing the same as the active ingredient” (Dainippon Ink & Chemicals, Inc., priority 1991, dated 1995).

Molecules are shown by their SMILES.

For the experiment, the system named is Hartley-type male guinea pigs. In words: Guinea Pig Homogeneous Skin Passive Anaphylaxis Assay (PCA reaction). In kind it is in vivo, guinea pig (Hartley-type). To be noted: Cavia porcellus, 10 mg/kg oral, 48 h after sensitization, read-out: Allergic reaction inhibitory index (%). The gist of the method: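 Inhibition % is derived from Evans Blue leakage area (mm^2, product of spot diameters) read 30 min after i.v. OVA/dye challenge. Beforehand, male Hartley guinea pigs (250~300 g) were passively sensitized intradermally with 120-fold-diluted anti-OVA serum and, after 48 h, received test compound 10 mg/kg p.o.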

In the case of `COc1cccc2c(OC(=O)c3ccccc3)c(OC/C=C(\C)CCC=C(C)C)c(=O)oc12` [Compound 122, 3-(geranyloxy)-4-(benzoyloxy)-8-(methoxy)-2H-1-benzopyran-2-one], the inhibition in vivo at 10 mg/kg is 30%. In the case of `COc1cccc2c(OC/C=C(\C)CCC=C(C)C)c(OC(C)=O)c(=O)oc12` [Compound 123, 3-(acetoxy)-4-(geranyloxy)-8-(methoxy)-2H-1-benzopyran-2-one], the inhibition in vivo at 10 mg/kg worked out at 34%. The value for `COc1cccc2c(OC(C)C)c(OC/C=C(\C)CCC=C(C)C)c(=O)oc12` [Compound 124, 3-(geranyloxy)-4-(isopropoxy)-8-(methoxy)-2H-1-benzopyran-2-one] was 33%; that for `COc1c(OC/C=C(\C)CCC=C(C)C)c2cccc(OC)c2oc1=O` [Compound 125, 3,8-(dimethoxy)-4-(geranyloxy)-2H-1-benzopyran-2-one] was 31%; that for `COc1cccc2c(OC/C=C(\C)CCC=C(C)C)c(OC/C=C(\C)CCC=C(C)C)c(=O)oc12` [Compound 126, 3,4-(digeranyloxy)-8-(methoxy)-2H-1-benzopyran-2-one] was 30%. As for `CCCCOc1cccc2c(O)c(OC(=O)c3ccccc3)c(=O)oc12` [Compound 127, 3-(benzoyloxy)-4-hydroxy-8-(butyloxy)-2H-1-benzopyran-2-one], the figure is 34%.

With `CCCCOc1cccc2c(O)c(O)c(=O)oc12` [Compound 128, 3,4-(dihydroxy)-8-(butyloxy)-2H-1-benzopyran-2-one], the inhibition in vivo at 10 mg/kg amounted to 40%. The value for `CC(C)Oc1cccc2c(O)c(OC(=O)c3ccccc3)c(=O)oc12` [Compound 129, 3-(benzoyloxy)-4-hydroxy-8-(isopropoxy)-2H-1-benzopyran-2-one] was 36%. For the compound `CC(C)Oc1cccc2c(O)c(O)c(=O)oc12` [Compound 130, 3,4-(dihydroxy)-8-(isopropoxy)-2H-1-benzopyran-2-one], the inhibition in vivo at 10 mg/kg was found to be 39%. For the compound `CC(=O)Oc1c(O)c(=O)oc2c(OC(C)C)cccc12` [Compound 131, 3-hydroxy-4-(acetoxy)-8-(isopropoxy)-2H-1-benzopyran-2-one], the inhibition in vivo at 10 mg/kg is 31%. As for `CC(=O)Oc1c(OC(C)=O)c2cccc(OC(C)C)c2oc1=O` [Compound 132, 3,4-(diacetoxy)-8-(isopropoxy)-2H-1-benzopyran-2-one], the figure is 32%; as for `CCCCCCCCCCOc1c(O)c2cccc(OC(C)C)c2oc1=O` [Compound 133, 3-(decyloxy)-4-hydroxy-8-(isopropoxy)-2H-1-benzopyran-2-one], 36%; as for `CC(C)Oc1c(O)c(=O)oc2c(OC(C)C)cccc12` [Compound 134, 3-hydroxy-4,8-(disopropoxy)-2H-1-benzopyran-2-one], 30%.

Take `CCCCCCCCCCOc1c(OC)c(=O)oc2c(OC(C)C)cccc12` [Compound 135, 3-(methoxy)-4-(decyloxy)-8-(isopropoxy)-2H-1-benzoyran-2-one]: the inhibition in vivo at 10 mg/kg stood at 30%. For `CCCCCCCCCCOc1c(OC(C)=O)c(=O)oc2c(OC(C)C)cccc12` [Compound 136, 3-(acetoxy)-4-(decyloxy)-8-(isopropoxy)-2H-1-benzopyran-2-one], the inhibition in vivo at 10 mg/kg came out at 33%. As for `CCCCCCCCCCOc1c(OC(=O)c2ccccc2)c2cccc(OC(C)C)c2oc1=O` [Compound 137, 3-(decyloxy)-4-(benzoyloxy)-8-(isopropoxy)-2H-1-benzopyran-2-one], the figure is 32%; as for `CC(C)=CCC/C(C)=C/COc1c(O)c2cccc(OC(C)C)c2oc1=O` [Compound 138, 3-(geranyloxy)-4-hydroxy-8-(isopropoxy)-2H-1-benzopyran-2-one], 35%. The value for `CC(C)=CCC/C(C)=C/COc1c(O)c(=O)oc2c(OC(C)C)cccc12` [Compound 139, 3-hydroxy-4-(geranyloxy)-8-(isopropoxy)-2H-1-benzopyran-2-one] was 33%; that for `CC(C)=CCC/C(C)=C/COc1c(OC(C)C)c2cccc(OC(C)C)c2oc1=O` [Compound 140, 3-(geranyloxy)-4,8-(diisopropoxy)-2H-1-benzopyran-2-one] was 30%.

`COc1c(OC/C=C(\C)CCC=C(C)C)c2cccc(OC(C)C)c2oc1=O` [Compound 141, 3-(methoxy)-4-(geranyloxy)-8-(isopropoxy)-2H-1-benzopyran-2-one]: the inhibition in vivo at 10 mg/kg amounted to 32%. As for `CC(C)=CCC/C(C)=C/COc1c(OC/C=C(\C)CCC=C(C)C)c2cccc(OC(C)C)c2oc1=O` [Compound 142, 3,4-(digeranyloxy)-8-(isopropoxy)-2H-1-benzopyran-2-one], the figure is 31%; as for `CCCCCCCCCCOc1cccc2c(O)c(OC(=O)c3ccccc3)c(=O)oc12` [Compound 143, 3-(benzoyloxy)-4-hydroxy-8-(decyloxy)-2H-1-benzopyran-2-one], 30%; as for `CCCCCCCCCCOc1cccc2c(O)c(O)c(=O)oc12` [Compound 144, 3,4-(dihydroxy)-8-(decyloxy)-2H-1-benzopyran-2-one], 34%. As for `CCCCCCCCCCOc1cccc2c(OC(C)=O)c(O)c(=O)oc12` [Compound 145, 3-hydroxy-4-(acetoxy)-8-(decyloxy)-2H-1-benzopyran-2-one], the figure is 32%; as for `CCCCCCCCCCOc1cccc2c(OC(=O)c3ccccc3)c(OC(C)=O)c(=O)oc12` [Compound 146, 3-(acetoxy)-4-(benzoyloxy)-8-(decyloxy)-2H-1-benzopyran-2-one], 30%; as for `CCCCCCCCCCOc1cccc2c(O)c(OC(C)C)c(=O)oc12` [Compound 147, 3-(isopropoxy)-4-hydroxy-8-(decyloxy)-2H-1-benzopyran-2-one], 30%. Consider `CCCCCCCCCCOc1cccc2c(OCCCC)c(O)c(=O)oc12` [Compound 148, 3-hydroxy-4-(butoxy)-8-(decyloxy)-2H-1-benzopyran-2-one], for which the inhibition in vivo at 10 mg/kg came out at 31%. As for `CCCCCCCCCCOc1cccc2c(OC(C)C)c(OC(C)=O)c(=O)oc12` [Compound 149, 3-(acetoxy)-4-(isopropoxy)-8-(decyloxy)-2H-1-benzopyran-2-one], the figure is 33%. Regarding `CCCCCCCCCCOc1cccc2c(OC(=O)c3ccccc3)c(OC)c(=O)oc12` [Compound 150, 3-(methoxy)-4-(benzoyloxy)-8-(decyloxy)-2H-1-benzopyran-2-one], the inhibition in vivo at 10 mg/kg is 34%.

For the compound `CCCCCCCCCCOc1cccc2c(O)c(OC/C=C(\C)CCC=C(C)C)c(=O)oc12` [Compound 151, 3-(geranyloxy)-4-hydroxy-8-(decyloxy)-2H-1-benzopyran-2-one], the inhibition in vivo at 10 mg/kg is 34%. The value for `CCCCCCCCCCOc1cccc2c(OC/C=C(\C)CCC=C(C)C)c(O)c(=O)oc12` [Compound 152, 3-hydroxy-4-(geranyloxy)-8-(decyloxy)-2H-1-benzopyran-2-one] was 31%.

For the compound `CCCCCCCCCCOc1cccc2c(OC(C)=O)c(OC/C=C(\C)CCC=C(C)C)c(=O)oc12` [Compound 153, 3-(geranyloxy)-4-(acetoxy)-8-(decyloxy)-2H-1-benzopyran-2-one], the inhibition in vivo at 10 mg/kg was found to be 30%. The value for `CCCCCCCCCCOc1cccc2c(OC/C=C(\C)CCC=C(C)C)c(OC(=O)c3ccccc3)c(=O)oc12` [Compound 154, 3-(benzoyloxy)-4-(geranyloxy)-8-(decyloxy)-2H-1-benzopyran-2-one] was 31%; that for `CCCCCCCCCCOc1cccc2c(OC)c(OC/C=C(\C)CCC=C(C)C)c(=O)oc12` [Compound 155, 3-(geranyloxy)-4-(methoxy)-8-(decyloxy)-2H-1-benzopyran-2-one] was 30%.

`CCCCCCCCCCOc1cccc2c(OC/C=C(\C)CCC=C(C)C)c(OC(C)C)c(=O)oc12` [Compound 156, 3-(isopropoxy)-4-(geranyloxy)-8-(decyloxy)-2H-1-benzopyran-2-one]: the inhibition in vivo at 10 mg/kg is 32%. With `CCCCCCCCCCOc1cccc2c(OC/C=C(\C)CCC=C(C)C)c(OC/C=C(\C)CCC=C(C)C)c(=O)oc12` [Compound 157, 3,4-(digeranyloxy)-8-(decyloxy)-2H-1-benzopyran-2-one], the inhibition in vivo at 10 mg/kg was 30%. The value for `CC(C)=CCC/C(C)=C/COc1cccc2c(O)c(OC(=O)c3ccccc3)c(=O)oc12` [Compound 158, 3-(benzoyloxy)-4-hydroxy-8-(geranyloxy)-2H-1-benzopyran-2-one] was 30%; that for `CC(C)=CCC/C(C)=C/COc1cccc2c(O)c(O)c(=O)oc12` [Compound 159, 3,4-(hydroxy)-8-(geranyloxy)-2H-1-benzopyran-2-one] was 36%.

On to `CC(=O)Oc1c(O)c(=O)oc2c(OC/C=C(\C)CCC=C(C)C)cccc12` [Compound 160, 3-hydroxy-4-(acetoxy)-8-(geranyloxy)-2H-1-benzopyran-2-one], for which the inhibition in vivo at 10 mg/kg came to 34%. As for `CC(=O)Oc1c(OC(=O)c2ccccc2)c(=O)oc2c(OC/C=C(\C)CCC=C(C)C)cccc12` [Compound 161, 3-(benzoyloxy)-4-(acetoxy)-8-(geranyloxy)-2H-1-benzopyran-2-one], the figure is 31%; as for `COc1c(O)c2cccc(OC/C=C(\C)CCC=C(C)C)c2oc1=O` [Compound 162, 3-(methoxy)-4-hydroxy-8-(geranyloxy)-2H-1-benzopyran-2-one], 31%.

Take `CC(C)=CCC/C(C)=C/COc1cccc2c(OC(C)C)c(O)c(=O)oc12` [Compound 163, 3-hydroxy-4-(isopropoxy)-8-(geranyloxy)-2H-1-benzopyran-2-one]: the inhibition in vivo at 10 mg/kg worked out at 32%.
